# In PMC3169519 (PLoS Computational Biology, 2011):
# Where two headings read alike, the source gives them in different places.
# How the values were obtained:
# TOP1 = target: T1, TOP1 (Homo sapiens, UniProt P11387); assay: DNA-bound TOP1 (Topo I Link Kit) after CPT11 exposure of synchronized cells; assay type: cell-based; settings: synchronized Caco-2 cells
# T1 construct: endogenous in cells; host or cells: Caco-2 (ATCC)
# T1 sequence (P11387 1-765): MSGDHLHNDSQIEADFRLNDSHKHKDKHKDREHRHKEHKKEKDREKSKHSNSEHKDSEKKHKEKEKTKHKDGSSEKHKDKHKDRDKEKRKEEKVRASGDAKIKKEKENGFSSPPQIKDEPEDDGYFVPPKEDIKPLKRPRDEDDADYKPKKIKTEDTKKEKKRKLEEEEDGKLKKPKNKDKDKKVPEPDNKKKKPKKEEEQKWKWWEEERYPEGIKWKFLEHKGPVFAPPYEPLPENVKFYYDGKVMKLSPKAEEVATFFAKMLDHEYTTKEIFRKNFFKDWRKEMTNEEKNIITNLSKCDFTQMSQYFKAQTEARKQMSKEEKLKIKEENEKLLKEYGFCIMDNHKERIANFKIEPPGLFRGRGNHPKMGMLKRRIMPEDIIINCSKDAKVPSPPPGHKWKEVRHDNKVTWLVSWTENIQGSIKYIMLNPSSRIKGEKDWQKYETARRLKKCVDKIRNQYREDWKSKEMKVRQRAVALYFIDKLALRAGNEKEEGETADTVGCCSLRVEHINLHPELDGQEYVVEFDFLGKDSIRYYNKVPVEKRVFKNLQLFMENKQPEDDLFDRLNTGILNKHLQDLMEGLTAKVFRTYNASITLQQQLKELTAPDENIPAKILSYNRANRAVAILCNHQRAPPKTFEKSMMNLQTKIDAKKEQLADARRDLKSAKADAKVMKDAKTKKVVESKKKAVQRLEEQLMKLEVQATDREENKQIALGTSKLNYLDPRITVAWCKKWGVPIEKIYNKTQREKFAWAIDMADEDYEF
# Experimental: The Caco-2 cell line was obtained from the American Type Culture Collection (Rockville, MD). Cells were grown in Dulbecco's modified Eagle's: Ham F12 medium (1∶1) supplemented with penicillin ([…]), streptomycin ( [drawing 195] ), glutamine (2 mM) (Fischer Scientific, Paris, France) and 10% of Fetal Bovine Serum (FBS) (Dutscher, Paris, France). They were maintained in a humidified atmosphere containing 5% [drawing 196] at [drawing 197] . Experiments were performed four days after confluence. CPT11 was purchased from Pfizer (Paris, France). For transport inhibition studies, non-synchronized cells were pre-incubated with verapamil, a non specific inhibitor of ABC transporters ( [drawing 198] for 24 h; Sigma Aldrich, Paris, France). […] Cell synchronization was performed by a serum shock which consisted in a 2-hour exposure to serum rich medium (DMEM:F12 containing 50% FBS). The beginning of the serum shock defined Circadian Time 0 (CT 0).
# The Topo I Link Kit (TopoGen, Port Orange, FL) was used to quantify the amount of TOP1 linked on DNA [56]. […] Fractions of [drawing 208] were removed from the top of the gradient, and an aliquot of each fraction ( [drawing 209] ) was diluted (1/5) and quantified at 260 nm with spectrophotometer (Eppendorf, Paris, France). […] Chemoluminescence signals were detected with Las4000 camera and quantified with ImageJ software. […]
# CESs = settings: cited from earlier work
# [1] = cancer patients, dumbbell delivery scheme over 6h; cited from earlier work
structure (smiles),measurement,setting,value
"CCc1c2c(nc3ccc(OC(=O)N4CCC(N5CCCCC5)CC4)cc13)-c1cc3c(c(=O)n1C2)COC(=O)[C@]3(O)CC [CPT11, irinotecan]","DNA-bound TOP1 protein amount, % of TOP1 total protein quantity",TOP1; 30 min CPT11 exposure at CT14,47%
same,"DNA-bound TOP1 protein amount, % of TOP1 total protein quantity",TOP1; 30 min CPT11 exposure at CT28,35.5%
same,Kces,CESs; [CES]=1.42 µM,53 µM
same,Kces,CESs; [CES]=2.03 µM,53 µM
same,Vces,CESs; [CES]=2.03 µM,0.714 µM/h
same,time CPT11 circulating,[1],approximately 12 h
